Results from patent US9416115B2, “Fused heterocyclic compounds as ion channel modulators” (Gilead Sciences, Inc., priority 2013, dated 2016).
Like-named read-outs stand apart in the source and are kept apart here.

Columns and labels:
hNaV1.2 (SCN2A) = molecular target: T1, hNaV1.2 (SCN2A) (Homo sapiens, UniProt Q99250); assay: Use-dependent inhibition of the CNS Nav1.2 sodium channel; assay type: cell-based; conditions: use-dependent block, 25 Hz, pulse 20, read-out: Nav1.2 UDB 25 Hz 10 uM
T1 construct: expressed in transfected cells
Procedure: HEK-293 cells stably expressing wild-type (WT) hNaV1.2 (SCN2A NCBI # NM_021007.2, SCN1B NCBI # NM_001037.4, SCN2B NCBI # NM_004588.2) were used to record INa. Cells are maintained with standard tissue culture procedures and stable channel expression is maintained with 800 ug/mL G418 and 3 ug/mL Puromycin in the culture medium. Unless otherwise noted, all reagents are purchased from Sigma-Aldrich (St Louis, Mo., U.S.A.).
Assays measuring Use-Dependent Block (UDB) of Nav1.2 are performed on an automated electrophysiology platform, QPatch 16X or QPatch HT (Sophion Bioscience, Copenhagen, Denmark), using the whole cell patch clamp technique to measure currents through the cell membrane. Series resistance compensation is set to 100% and series resistance and whole-cell compensation are performed automatically. Currents stored in the Sophion Bioscience Oracle database (Sophion Bioscience, Copenhagen, Denmark). Analysis is performed using QPatch Assay software and data are compiled in Excel 2010 (Microsoft, Seattle, Wash., U.S.A.).
The internal (pipette) solution consists of (in mM) 105 CsF, 10 NaF, 20 CsCl, 2 EGTA, 10 HEPES, 10 Dextrose with a pH of 7.35 and osmolarity of 300 mOsmol/kg. The external (bath) solution contains in (mM): 145 NaCl, 4 KCl, 1.8 CaCl2, 1 MgCl2, 10 dextrose, 10 HEPES, with a pH of 7.35 and osmolarity of 310 mOsmol/kg. Experiments are carried out at 23-25° C.
Compound stocks are routinely made by the Gilead Sample Bank in vials to 10 mM in dimethyl sulfoxide (DMSO). In some cases, when compounds are not soluble in DMSO, they are made in 100% ethanol. Stocks are sonicated as necessary. […]
Cells are allowed to stabilize for 10 min after establishment of the whole-cell configuration before current is measured. The test compound is applied 2 times at 60 second intervals. After the second compound addition, a 200 second wait period was imposed to allow for equilibration. Leak currents are subtracted by using an online P/4 procedure and all currents are low-pass Bessel filtered at 5 kHz and digitized at […].
Results are presented as mean percentage inhibition.
Use-dependent block of Nav1.2 peak current is measured during pulse number 20 of a voltage pulse train (0 mV, 20 ms, 20 pulses, 25 Hz) from a holding potential of −120 mV.
Currents are normalized to the peak current recorded in response to the first pulse in each frequency train. The voltage protocol for UDB was performed in the absence and presence of compound and percentage inhibition was calculated with respect to the compound free condition.

[1] = molecular target: wild-type human cardiac sodium channel, hNav1.5 (Homo sapiens, UniProt Q14524); assay: Peak INa screening assay (tonic block and use-dependent block); assay type: cell-based
In short: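 HEK293 cells stably expressing hNav1.5 (no beta subunits), automated whole-cell patch clamp at 23-25° C, 40 mM Na+ bath (choline substitution), pH 7.35. Compound at 1 or 3 μM, added twice then 200 s equilibration; tonic block by steps to −20 mV from −100 mV at 0.1 Hz, use-dependent block at pulse 50 of a 3 Hz train, rundown-corrected versus compound-free.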

[2] = tonic block of Peak INa, 0.1 Hz, holding -100 mV, read-out: Peak TB 3 uM
[3] = use-dependent block of Peak INa, 3 Hz, pulse 50, read-out: Peak UDB 3 Hz 3 uM

T1 sequence (Q99250 whole entry): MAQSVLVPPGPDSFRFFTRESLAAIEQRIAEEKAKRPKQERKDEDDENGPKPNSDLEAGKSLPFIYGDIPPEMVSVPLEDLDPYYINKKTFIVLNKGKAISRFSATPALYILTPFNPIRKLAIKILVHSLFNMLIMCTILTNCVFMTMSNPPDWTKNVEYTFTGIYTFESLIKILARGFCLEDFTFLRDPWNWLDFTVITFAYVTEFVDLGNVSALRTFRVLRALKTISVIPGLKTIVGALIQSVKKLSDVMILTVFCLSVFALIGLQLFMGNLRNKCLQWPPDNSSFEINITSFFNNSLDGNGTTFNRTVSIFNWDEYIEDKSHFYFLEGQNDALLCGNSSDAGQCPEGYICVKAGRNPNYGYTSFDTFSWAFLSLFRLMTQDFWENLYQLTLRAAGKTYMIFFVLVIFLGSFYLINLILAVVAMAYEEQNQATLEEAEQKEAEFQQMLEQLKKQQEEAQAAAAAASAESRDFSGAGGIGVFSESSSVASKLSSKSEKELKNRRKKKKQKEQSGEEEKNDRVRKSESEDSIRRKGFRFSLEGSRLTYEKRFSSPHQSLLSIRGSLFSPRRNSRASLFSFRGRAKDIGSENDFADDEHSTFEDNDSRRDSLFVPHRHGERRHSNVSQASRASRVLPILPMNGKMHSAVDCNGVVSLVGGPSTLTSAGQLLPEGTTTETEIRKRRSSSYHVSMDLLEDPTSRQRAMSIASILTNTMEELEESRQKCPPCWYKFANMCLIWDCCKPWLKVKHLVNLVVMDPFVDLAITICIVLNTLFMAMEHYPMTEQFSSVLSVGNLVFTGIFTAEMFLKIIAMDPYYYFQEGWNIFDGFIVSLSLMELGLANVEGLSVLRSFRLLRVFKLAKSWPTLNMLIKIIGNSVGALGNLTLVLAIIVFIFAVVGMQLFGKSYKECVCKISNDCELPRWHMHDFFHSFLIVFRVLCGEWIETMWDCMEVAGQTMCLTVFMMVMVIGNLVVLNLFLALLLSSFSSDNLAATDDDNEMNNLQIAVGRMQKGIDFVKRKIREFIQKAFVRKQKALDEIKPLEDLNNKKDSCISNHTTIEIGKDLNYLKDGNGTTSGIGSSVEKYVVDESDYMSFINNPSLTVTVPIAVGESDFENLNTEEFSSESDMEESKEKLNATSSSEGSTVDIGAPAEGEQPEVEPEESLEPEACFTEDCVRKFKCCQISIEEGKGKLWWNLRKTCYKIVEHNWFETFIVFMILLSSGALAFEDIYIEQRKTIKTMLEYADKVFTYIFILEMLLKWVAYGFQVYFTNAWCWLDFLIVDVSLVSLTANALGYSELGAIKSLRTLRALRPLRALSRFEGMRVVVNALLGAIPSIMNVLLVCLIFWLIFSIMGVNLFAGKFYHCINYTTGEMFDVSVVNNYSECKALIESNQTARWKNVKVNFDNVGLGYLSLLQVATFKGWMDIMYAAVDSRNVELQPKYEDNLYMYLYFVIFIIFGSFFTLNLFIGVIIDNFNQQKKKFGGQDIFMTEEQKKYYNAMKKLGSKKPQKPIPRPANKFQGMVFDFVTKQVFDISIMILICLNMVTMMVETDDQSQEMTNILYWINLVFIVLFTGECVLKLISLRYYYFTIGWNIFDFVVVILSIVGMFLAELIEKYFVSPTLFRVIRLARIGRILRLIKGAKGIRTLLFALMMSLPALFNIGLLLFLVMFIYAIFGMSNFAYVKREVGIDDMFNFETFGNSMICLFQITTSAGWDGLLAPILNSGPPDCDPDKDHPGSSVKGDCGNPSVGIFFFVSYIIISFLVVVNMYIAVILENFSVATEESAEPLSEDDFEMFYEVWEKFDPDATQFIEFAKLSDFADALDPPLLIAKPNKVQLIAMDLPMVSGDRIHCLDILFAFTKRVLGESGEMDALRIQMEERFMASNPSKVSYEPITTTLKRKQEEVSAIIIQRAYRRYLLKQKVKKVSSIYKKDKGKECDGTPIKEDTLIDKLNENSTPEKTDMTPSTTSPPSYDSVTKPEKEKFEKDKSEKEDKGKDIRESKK
T1 sequence (Q07699 19-218 partner): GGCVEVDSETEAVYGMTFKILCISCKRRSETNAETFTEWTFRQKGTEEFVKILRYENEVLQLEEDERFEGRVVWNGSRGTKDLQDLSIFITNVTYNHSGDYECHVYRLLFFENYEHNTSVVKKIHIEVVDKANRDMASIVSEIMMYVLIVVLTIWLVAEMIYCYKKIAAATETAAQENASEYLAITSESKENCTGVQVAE
T1 sequence (O60939 30-215 partner): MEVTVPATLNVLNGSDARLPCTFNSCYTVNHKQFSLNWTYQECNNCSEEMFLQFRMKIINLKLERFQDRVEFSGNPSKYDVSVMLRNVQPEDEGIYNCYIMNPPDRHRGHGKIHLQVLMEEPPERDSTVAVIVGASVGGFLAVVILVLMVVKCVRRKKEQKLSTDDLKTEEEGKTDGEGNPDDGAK
Sequence of wild-type human cardiac sodium channel, hNav1.5 (Q14524 whole entry): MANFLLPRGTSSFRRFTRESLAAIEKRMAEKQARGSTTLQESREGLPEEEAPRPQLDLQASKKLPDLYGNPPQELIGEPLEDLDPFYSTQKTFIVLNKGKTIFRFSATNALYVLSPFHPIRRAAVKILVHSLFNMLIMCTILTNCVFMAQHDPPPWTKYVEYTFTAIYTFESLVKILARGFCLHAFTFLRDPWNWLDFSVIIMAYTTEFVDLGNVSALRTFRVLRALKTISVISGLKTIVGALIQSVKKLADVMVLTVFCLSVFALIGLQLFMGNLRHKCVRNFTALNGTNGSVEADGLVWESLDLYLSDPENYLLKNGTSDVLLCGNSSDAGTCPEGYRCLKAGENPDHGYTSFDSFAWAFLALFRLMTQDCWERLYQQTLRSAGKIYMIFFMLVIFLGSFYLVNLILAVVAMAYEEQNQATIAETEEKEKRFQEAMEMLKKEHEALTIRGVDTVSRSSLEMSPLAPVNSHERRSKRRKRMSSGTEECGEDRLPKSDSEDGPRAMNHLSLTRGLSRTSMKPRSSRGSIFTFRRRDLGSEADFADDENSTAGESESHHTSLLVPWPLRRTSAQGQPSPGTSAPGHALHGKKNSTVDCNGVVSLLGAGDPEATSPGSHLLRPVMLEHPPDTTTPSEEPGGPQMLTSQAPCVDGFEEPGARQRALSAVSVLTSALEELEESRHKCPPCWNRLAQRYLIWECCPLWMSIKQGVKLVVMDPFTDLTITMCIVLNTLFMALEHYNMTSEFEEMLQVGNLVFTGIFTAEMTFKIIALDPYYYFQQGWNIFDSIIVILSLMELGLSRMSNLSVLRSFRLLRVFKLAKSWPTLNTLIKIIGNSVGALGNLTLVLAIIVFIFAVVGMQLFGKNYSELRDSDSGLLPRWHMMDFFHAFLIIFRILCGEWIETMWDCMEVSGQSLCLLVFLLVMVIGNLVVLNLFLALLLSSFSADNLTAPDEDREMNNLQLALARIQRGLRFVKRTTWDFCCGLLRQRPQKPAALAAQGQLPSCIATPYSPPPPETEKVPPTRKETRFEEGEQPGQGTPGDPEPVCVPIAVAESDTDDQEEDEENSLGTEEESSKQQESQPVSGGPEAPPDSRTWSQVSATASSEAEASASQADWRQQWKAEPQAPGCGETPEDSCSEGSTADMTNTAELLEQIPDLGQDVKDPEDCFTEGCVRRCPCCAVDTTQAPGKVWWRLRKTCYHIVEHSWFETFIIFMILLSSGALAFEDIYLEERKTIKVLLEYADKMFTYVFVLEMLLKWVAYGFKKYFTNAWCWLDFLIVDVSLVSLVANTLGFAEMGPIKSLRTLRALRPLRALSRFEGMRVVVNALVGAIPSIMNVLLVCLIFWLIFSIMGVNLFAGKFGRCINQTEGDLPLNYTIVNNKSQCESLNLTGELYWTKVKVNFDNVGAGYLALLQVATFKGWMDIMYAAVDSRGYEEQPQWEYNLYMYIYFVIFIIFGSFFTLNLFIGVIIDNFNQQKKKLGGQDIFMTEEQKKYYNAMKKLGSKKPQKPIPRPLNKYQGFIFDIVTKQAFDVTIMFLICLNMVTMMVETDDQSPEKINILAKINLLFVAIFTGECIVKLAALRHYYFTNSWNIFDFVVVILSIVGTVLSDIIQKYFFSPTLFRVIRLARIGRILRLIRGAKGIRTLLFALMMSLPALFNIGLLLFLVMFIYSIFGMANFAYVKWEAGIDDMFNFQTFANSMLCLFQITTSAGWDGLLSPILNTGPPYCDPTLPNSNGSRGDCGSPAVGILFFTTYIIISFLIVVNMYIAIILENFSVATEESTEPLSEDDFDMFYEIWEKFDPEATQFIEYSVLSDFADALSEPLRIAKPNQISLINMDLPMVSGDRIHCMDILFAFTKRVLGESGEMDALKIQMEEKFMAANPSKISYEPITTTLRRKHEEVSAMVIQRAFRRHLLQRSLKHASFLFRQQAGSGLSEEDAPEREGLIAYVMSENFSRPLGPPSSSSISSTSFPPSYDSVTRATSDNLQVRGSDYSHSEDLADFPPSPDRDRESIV

SMILES	inhibition at 10 µM (hNaV1.2 (SCN2A)) [%]	inhibition at 3 µM [1, 2] [%]	inhibition at 3 µM [1, 3] [%]
FC(F)(F)Oc1ccc(-c2ccc3onc(NCc4ncco4)c3c2)cc1 [Example 156, N-(oxazol-2-ylmethyl)-5-(4-(trifluoromethoxy)phenyl)benzo[d]isoxazol-3-amine]	10.6	10.4	< 5
Cc1cc(-c2ccc(OC(F)(F)F)cc2)cc2c(OCc3ncccn3)noc12 [Example 16, 7-methyl-3-(pyrimidin-2-ylmethoxy)-5-(4-(trifluoromethoxy)phenyl)benzo[d]isoxazole]	18	35.8	< 5
COc1cc2onc(OCc3ncccn3)c2cc1-c1ccc(F)c(Cl)c1 [Example 15, 5-(3-chloro-4-fluorophenyl)-6-methoxy-3-(pyrimidin-2-ylmethoxy)benzo[d]isoxazole]	< 5	14.3	< 5
O=C1NCC[C@H]1Oc1noc2ccc(-c3ccc(OC(F)(F)F)cc3)cc12 [Example 72, (R)-3-((5-(4-(trifluoromethoxy)phenyl)benzo[d]isoxazol-3-yl)oxy)pyrrolidin-2-one]	75.4	17.7	10.8
COCCOc1noc2ccc(-c3ccc(OC(F)(F)F)cc3)cc12 [Example 60, 3-(2-methoxyethoxy)-5-(4-(trifluoromethoxy)phenyl)benzo[d]isoxazole]	< 5	30.6	< 5
FC(F)(F)Oc1ccc(-c2ccc3onc(-n4cnc(-c5ccccc5)c4)c3c2)cc1 [Example 142, 3-(4-phenyl-1H-imidazol-1-yl)-5-(4-(trifluoromethoxy)phenyl)benzo[d]isoxazole]	65	15.6	13.9
Cc1cc(-c2ccc3onc(OCc4ncccn4)c3c2)ccc1OC(F)(F)F [Example 7, 5-(3-methyl-4-(trifluoromethoxy)phenyl)-3-(pyrimidin-2-ylmethoxy)benzo[d]isoxazole]	< 5	16.3	< 5
CC(=O)N1CCOC[C@@H]1COc1noc2ccc(-c3ccc(OC(F)(F)F)cc3)cc12 [Example 116, (R)-1-(3-(((5-(4-(trifluoromethoxy)phenyl)benzo[d]isoxazol-3-yl)oxy)methyl)morpholino)ethan-1-one]	62.3	28.9	15
FC(F)(F)Oc1ccc(-c2ccc3onc(-n4ccnc4)c3c2)cc1 [Example 132, 3-(1H-imidazol-1-yl)-5-(4-(trifluoromethoxy)phenyl)benzo[d]isoxazole]	< 5	20.6	5.1
COc1cc(OC(F)(F)F)ccc1-c1ccc2onc(OCc3ncccn3)c2c1 [Example 4, 5-(2-methoxy-4-(trifluoromethoxy)phenyl)-3-(pyrimidin-2-ylmethoxy)benzo[d]isoxazole]	13.9	38	17.9
Cc1cn(-c2noc3ccc(-c4ccc(OC(F)(F)F)cc4)cc23)cn1 [Example 139, 3-(4-methyl-1H-imidazol-1-yl)-5-(4-(trifluoromethoxy)phenyl)benzo[d]isoxazole]	26.1	15.6	< 5
COc1ccnc(COc2noc3ccc(-c4ccc(OC(F)(F)F)cc4)cc23)n1 [Example 67, 3-((4-methoxypyrimidin-2-yl)methoxy)-5-(4-(trifluoromethoxy)phenyl)benzo[d]isoxazole]	< 5	48.7	< 5
CC(C)c1nccn1-c1noc2ccc(-c3ccc(OC(F)(F)F)cc3)cc12 [Example 144, 3-(2-isopropyl-1H-imidazol-1-yl)-5-(4-(trifluoromethoxy)phenyl)benzo[d]isoxazole]	75.8	46.9	< 5
FC(F)(F)Oc1ccc(-c2ccc3onc(OCc4nnc(C5CC5)o4)c3c2)cc1 [Example 96, 3-((5-cyclopropyl-1,3,4-oxadiazol-2-yl)methoxy)-5-(4-(trifluoromethoxy)phenyl)benzo[d]isoxazole]	5.7	29.4	< 5
O=C1CCCN1CCNc1noc2ccc(-c3ccc(OC(F)(F)F)cc3)cc12 [Example 135, 1-(2-((5-(4-(trifluoromethoxy)phenyl)benzo[d]isoxazol-3-yl)amino)ethyl)pyrrolidin-2-one]	76.5	29.3	18
COc1ccnc(CNc2noc3ccc(-c4ccc(OC(F)(F)F)cc4)cc23)n1 [Example 149, N-((4-methoxypyrimidin-2-yl)methyl)-5-(4-(trifluoromethoxy)phenyl)benzo[d]isoxazol-3-amine]	44.4	86.4	< 5
FC(F)(F)Oc1ccc(-c2ccc3onc(OC[C@H]4COCCN4)c3c2)cc1 [Example 114, (R)-3-(morpholin-3-ylmethoxy)-5-(4-(trifluoromethoxy)phenyl)benzo[d]isoxazole]	87	43.4	33.3
CC(C)[C@@H](COc1noc2ccc(-c3ccc(OC(F)(F)F)cc3)cc12)N1CCCC1=O [Example 120, (S)-1-(3-methyl-1-((5-(4-(trifluoromethoxy)phenyl)benzo[d]isoxazol-3-yl)oxy)butan-2-yl)pyrrolidin-2-one]	74.4	35.2	6.6
Cc1nnc(COc2noc3ccc(-c4ccc(OC(F)(F)F)cc4)cc23)o1 [Example 99, 3-((5-methyl-1,3,4-oxadiazol-2-yl)methoxy)-5-(4-(trifluoromethoxy)phenyl)benzo[d]isoxazole]	50.5	55.6	< 5
Cc1cc2onc(OCc3ncccn3)c2cc1-c1ccc(C(F)(F)F)cc1F [Example 28, 5-(2-fluoro-4-(trifluoromethyl)phenyl)-6-methyl-3-(pyrimidin-2-ylmethoxy)benzo[d]isoxazole]	< 5	21.6	< 5
Cc1ncn(-c2noc3ccc(-c4ccc(OC(F)(F)F)cc4)cc23)n1 [Example 141, 3-(3-methyl-1H-1,2,4-triazol-1-yl)-5-(4-(trifluoromethoxy)phenyl)benzo[d]isoxazole]	19.9	17.8	< 5
CC(C)(C)OC(=O)N1CCOC[C@H]1COc1noc2ccc(-c3ccc(OC(F)(F)F)cc3)cc12 [Example 111, tert-butyl(S)-3-(((5-(4-(trifluoromethoxy)phenyl)benzo[d]isoxazol-3-yl)oxy)methyl)morpholine-4-carboxylate]	47.3	< 5	7.3
FC(F)(F)Oc1ccc(-c2ccc3onc(OCc4cnccn4)c3c2)cc1 [Example 151, 3-(pyrazin-2-ylmethoxy)-5-(4-(trifluoromethoxy)phenyl)benzo[d]isoxazole]	18.6	43.3	< 5
O=C1OCCN1CCOc1noc2ccc(-c3ccc(OC(F)(F)F)cc3)cc12 [Example 75, 3-(2-((5-(4-(trifluoromethoxy)phenyl)benzo[d]isoxazol-3-yl)oxy)ethyl)oxazolidin-2-one]	27.1	36.9	< 5
CC(C)c1nnc(COc2noc3ccc(-c4ccc(OC(F)(F)F)cc4)cc23)o1 [Example 100, 3-((5-isopropyl-1,3,4-oxadiazol-2-yl)methoxy)-5-(4-(trifluoromethoxy)phenyl)benzo[d]isoxazole]	11	23.5	< 5
